Measured values taken from PubChem BioAssay AID1963984 (Molecular Pharmacology Branch, DTP, NCI, 2024).

Tested on: 233499-124-R-J3-PDC spheroids with HUVEC/MSC, viability
Experiment: Anticancer human tumor 233499-124-R-J3-PDC patient-derived colon adenocarcinoma cell line growth inhibition [PI3K]
Conditions: for IC50: curve of first compound; for viability, T/C: stronger effect = lower value
From the text: Combinatorial screen of targeted agents with the PI3K inhibitors inavolisib, alpelisib, duvelisib, and copanlisib in multi-cell type tumor spheroids
A high-throughput screen of multi-cell type tumor spheroids was designed to identify active combinations of targeted small molecules and PI3K pathway inhibitors. Complex spheroids include a stromal component modeled by human endothelial cells (HUVEC) and fibroblasts modeled by human mesenchymal stem cells (MSCs). The concentration ranges selected for each drug and investigational agent were based upon clinically achievable concentrations if the clinical Cmax of the agent was known.
Compounds. The drugs and investigational agents: inavolisib (NSC800729), alpelisib (NSC765974), duvelisib (NSC772469), copanlisib (NSC816437), ipatasertib (NSC767898), afuresertib (NSC778305), talazoparib (NSC767125), sapanisertib (NSC764658), selumetinib (NSC741078), tovorafenib (DAY101, NSC766906), vemurafenib (NSC761431), ravoxertinib (NSC781343), sotorasib (NSC818433), MRTX1133 (NSC 836407), abemaciclib (NSC 768073), palbociclib (NSC758247), venetoclax (NSC 766270), SY5609 (NSC837396), enzalutamide (NSC755605), and darolutamide (NSC825331), were obtained from the National Cancer Institute (NCI) Developmental Therapeutics Program Chemical Repository. The FDA-approved anticancer drug set is available from the NCI Developmental Therapeutics Program. […] The stock solutions were prepared in dimethyl sulfoxide (DMSO, Sigma-Aldrich, St. Louis, MO, cat. D2650) at 800-fold the tested concentration and stored at -70 degrees C prior to their use. All drugs and investigational agents were tested over a range starting from a high concentration at or near the clinical Cmax and decreasing in half-log increments. If the clinical Cmax for an agent had not been determined, the highest concentration tested was 10 microM.
Cell Culture. All cells were maintained in an incubator at 37 degrees C and 5% CO2 with 95% humidity. The PDC lines were cultured according to standard operating procedures established by the NCI PDMR (https://pdmr.cancer.gov/sops/default.htm). All PDCs were thawed and cultured in Matrigel-coated flasks prepared with a working solution of 1X Ham's F-12 nutrient mix, without supplementation (Invitrogen, Waltham, MA, cat. 11765054), 100 U/mL penicillin-streptomycin (Invitrogen, cat. 15140122), and 2.5% Matrigel (Corning Inc., Corning, NY, cat. 354248) for the first three passages. The 354836-022-R-J1-PDC, 475296-252-R-J1-PDC, and 997726-040-R-J2-PDC lines were cultured in 6A media, which includes advanced DMEM/F-12 (Thermo Fisher Scientific, cat. 12634028), 10 mM HEPES (Thermo Fisher Scientific, cat. 15630080), 1X GlutaMAX supplement (Thermo Fisher Scientific, cat. 35050061), 0.1 mg/mL primocin (InvivoGen, San Diego, CA, cat. ant-pm-2), 10% defined fetal bovine serum, heat inactivated (HyClone Laboratories Inc., Logan, UT, cat. SH30070.03HI), 50% L-WRN conditioned media (ATCC, cat. CRL-3276), 1.25 mM N-Acetyl-L-cysteine (Sigma-Aldrich, cat. A9165), 10 mM nicotinamide (Sigma-Aldrich, cat. N0636), 1X B-27 supplement (Thermo Fisher Scientific, cat. 17504044), 1X N-2 supplement (Thermo Fisher Scientific, cat. 17502048), and 10 microM Y-27632 dihydrochloride (Tocris Bioscience, Bristol, United Kingdom, cat. 1254). The 624824-186-R-J2-PDC line was cultured in 6C/Colon 1B media, which includes all 6A media components plus 50 ng/mL human EGF recombinant protein (Thermo Fisher Scientific, cat. PHG0311). […]
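Further: spheroids exposed to agents for seven days before readout.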
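Wherever viability, T/C is given: percent viability relative to DMSO vehicle control taken as 100%.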

Q: What does the source list for CNC(=O)c1ccc(N2C(=S)N(c3ccc(C#N)c(C(F)(F)F)c3)C(=O)C2(C)C)cc1F + CC(Nc1ccc2c(c1)OCCn1cc(N3C(=O)OCC3C(F)F)nc1-2)C(N)=O?
A: IC50 (second compound 0.00316 µM): 8.07 µM; IC50 (second compound 0.01 µM): > 10 µM; IC50 (second compound 0.0316 µM): > 10 µM; IC50 (second compound 0.1 µM): > 10 µM; IC50 (second compound 0.316 µM): > 10 µM; IC50 (second compound 1 µM): 0.145 µM; viability, T/C (second compound 0.00316 µM, first compound 0.0316 µM): 85.8%; viability, T/C (second compound 0.00316 µM, first compound 0.1 µM): 82.7%; viability, T/C (second compound 0.00316 µM, first compound 0.316 µM): 79.2%; viability, T/C (second compound 0.00316 µM, first compound 1 µM): 92%; viability, T/C (second compound 0.00316 µM, first compound 3.16 µM): 78.3%; viability, T/C (second compound 0.00316 µM, first compound 10 µM): 42.9%; viability, T/C (second compound 0.01 µM, first compound 0.0316 µM): 88.3%; viability, T/C (second compound 0.01 µM, first compound 0.1 µM): 98.5%; viability, T/C (second compound 0.01 µM, first compound 0.316 µM): 95%; viability, T/C (second compound 0.01 µM, first compound 1 µM): 76.9%; viability, T/C (second compound 0.01 µM, first compound 3.16 µM): 71.2%; viability, T/C (second compound 0.01 µM, first compound 10 µM): 72.2%; viability, T/C (second compound 0.0316 µM, first compound 0.0316 µM): 88.9%; viability, T/C (second compound 0.0316 µM, first compound 0.1 µM): 54.9%; viability, T/C (second compound 0.0316 µM, first compound 0.316 µM): 76%; viability, T/C (second compound 0.0316 µM, first compound 1 µM): 89.2%; viability, T/C (second compound 0.0316 µM, first compound 3.16 µM): 88.1%; viability, T/C (second compound 0.0316 µM, first compound 10 µM): 67.4%; viability, T/C (second compound 0.1 µM, first compound 0.0316 µM): 84.7%; viability, T/C (second compound 0.1 µM, first compound 0.1 µM): 71.8%; viability, T/C (second compound 0.1 µM, first compound 0.316 µM): 94.4%; viability, T/C (second compound 0.1 µM, first compound 1 µM): 77.9%; viability, T/C (second compound 0.1 µM, first compound 3.16 µM): 69.5%; viability, T/C (second compound 0.1 µM, first compound 10 µM): 55.6%; viability, T/C (second compound 0.316 µM, first compound 0.0316 µM): 88.2%; viability, T/C (second compound 0.316 µM, first compound 0.1 µM): 38%; viability, T/C (second compound 0.316 µM, first compound 0.316 µM): 71.2%; viability, T/C (second compound 0.316 µM, first compound 1 µM): 76.2%; viability, T/C (second compound 0.316 µM, first compound 3.16 µM): 59.1%; viability, T/C (second compound 0.316 µM, first compound 10 µM): 53.6%; viability, T/C (second compound 1 µM, first compound 0.0316 µM): 52.5%; viability, T/C (second compound 1 µM, first compound 0.1 µM): 52.1%; viability, T/C (second compound 1 µM, first compound 0.316 µM): 42.8%; viability, T/C (second compound 1 µM, first compound 1 µM): 50.2%; viability, T/C (second compound 1 µM, first compound 3.16 µM): 43.7%; viability, T/C (second compound 1 µM, first compound 10 µM): 34.6%

Q: For Cn1cnc2c(F)c(Nc3ccc(Br)cc3Cl)c(C(=O)NOCCO)cc21 + CC(Nc1ccc2c(c1)OCCn1cc(N3C(=O)OCC3C(F)F)nc1-2)C(N)=O, which IC50 (second compound 0.00316 µM) is on record?
A: 0.479 µM

Q: And the IC50 (second compound 0.01 µM)?
A: 0.541 µM

Q: What about the IC50 (second compound 0.0316 µM) of the same compound?
A: 0.262 µM

Q: What about the IC50 (second compound 0.1 µM) of the same compound?
A: 0.2 µM

Q: And the IC50 (second compound 0.316 µM)?
A: 0.134 µM

Q: And the IC50 (second compound 1 µM)?
A: 0.0171 µM

Q: And the viability, T/C (second compound 0.00316 µM, first compound 0.00949 µM)?
A: 85%

Q: What about the viability, T/C (second compound 0.00316 µM, first compound 0.03 µM) of the same compound?
A: 80%

Q: And the viability, T/C (second compound 0.00316 µM, first compound 0.0949 µM)?
A: 75.1%

Q: What about the viability, T/C (second compound 0.00316 µM, first compound 0.3 µM) of the same compound?
A: 57%

Q: What about the viability, T/C (second compound 0.00316 µM, first compound 0.949 µM) of the same compound?
A: 38.4%

Q: And the viability, T/C (second compound 0.00316 µM, first compound 3 µM)?
A: 18.7%

Q: And the viability, T/C (second compound 0.01 µM, first compound 0.00949 µM)?
A: 79.7%

Q: And the viability, T/C (second compound 0.01 µM, first compound 0.03 µM)?
A: 85.1%

Q: And the viability, T/C (second compound 0.01 µM, first compound 0.0949 µM)?
A: 80.3%

Q: And the viability, T/C (second compound 0.01 µM, first compound 0.3 µM)?
A: 64.1%

Q: What about the viability, T/C (second compound 0.01 µM, first compound 0.949 µM) of the same compound?
A: 36.4%

Q: And the viability, T/C (second compound 0.01 µM, first compound 3 µM)?
A: 21.9%

Q: And the viability, T/C (second compound 0.0316 µM, first compound 0.00949 µM)?
A: 80.4%

Q: And the viability, T/C (second compound 0.0316 µM, first compound 0.03 µM)?
A: 90.6%

Q: And the viability, T/C (second compound 0.0316 µM, first compound 0.0949 µM)?
A: 78.7%

Q: What about the viability, T/C (second compound 0.0316 µM, first compound 0.3 µM) of the same compound?
A: 45.7%

Q: And the viability, T/C (second compound 0.0316 µM, first compound 0.949 µM)?
A: 30.2%

Q: And the viability, T/C (second compound 0.0316 µM, first compound 3 µM)?
A: 23.8%

Q: What about the viability, T/C (second compound 0.1 µM, first compound 0.00949 µM) of the same compound?
A: 77.6%

Q: What about the viability, T/C (second compound 0.1 µM, first compound 0.03 µM) of the same compound?
A: 60.8%

Q: And the viability, T/C (second compound 0.1 µM, first compound 0.0949 µM)?
A: 62.1%

Q: And the viability, T/C (second compound 0.1 µM, first compound 0.3 µM)?
A: 47.4%

Q: What about the viability, T/C (second compound 0.1 µM, first compound 0.949 µM) of the same compound?
A: 22.9%

Q: What about the viability, T/C (second compound 0.1 µM, first compound 3 µM) of the same compound?
A: 16.8%

Q: What about the viability, T/C (second compound 0.316 µM, first compound 0.00949 µM) of the same compound?
A: 70.2%

Q: What about the viability, T/C (second compound 0.316 µM, first compound 0.03 µM) of the same compound?
A: 82.6%

Q: And the viability, T/C (second compound 0.316 µM, first compound 0.0949 µM)?
A: 53.6%

Q: What about the viability, T/C (second compound 0.316 µM, first compound 0.3 µM) of the same compound?
A: 37.1%

Q: What about the viability, T/C (second compound 0.316 µM, first compound 0.949 µM) of the same compound?
A: 29.2%

Q: What about the viability, T/C (second compound 0.316 µM, first compound 3 µM) of the same compound?
A: 24.2%

Q: And the viability, T/C (second compound 1 µM, first compound 0.00949 µM)?
A: 57%

Q: What about the viability, T/C (second compound 1 µM, first compound 0.03 µM) of the same compound?
A: 42%

Q: What about the viability, T/C (second compound 1 µM, first compound 0.0949 µM) of the same compound?
A: 38.2%

Q: And the viability, T/C (second compound 1 µM, first compound 0.3 µM)?
A: 19.8%

Q: And the viability, T/C (second compound 1 µM, first compound 0.949 µM)?
A: 28.7%

Q: What about the viability, T/C (second compound 1 µM, first compound 3 µM) of the same compound?
A: 12.7%
